Data on 1 compound can be found in patent US9249159B2, “Composition for treating hepatitis C virus, regulating phosphorylation of replicase” (Industry-Academic Cooperation Foundation, Yonsei University, priority 2011, dated 2016).

For one assay, the system named is PDK1. Description: PDK1 level and activation in R-1 cell by immunoblotting. Conditions: 10 or 50 nM, 72 hours. The class given is cell-based. The text has this: Total cell lysates from cells treated with inhibitors or IFN-α by using antibodies to PDK1, p-PDK1 (S241), PRK2, and p-PRK2 (T816) (products of Cell Signaling Technology, Inc., Beverly, Mass., USA) was used for immunoblotting. In order to detect PKC isoforms α, β, and γ, a polyclonal antibody to a consensus sequence present in three PKC (protein kinase C) isoforms α, β and γ (anti-pan-PKC; Zymed Laboratories, San Francisco, Calif., USA) was used. An anti-α-tubulin antibody (Oncogene Research Products, Cambridge, Mass., USA) was carried out in immunoblotting for checking whether or not the same amount of protein was loaded.
Therefore, anti-HCV activity of 17-DMAG in the R-1 cell was tested at a level lower than 50 nM. To do so, the R-1 cell was treated with a vehicle (0.25% DMSO) or 17-DMAG for 72 hours and the cell lysates (50 μg) and antibodies specific to the proteins were immunoblotted to measure levels of the proteins. An anti-α-tubulin antibody (lower end panel) was used as an internal loading control. The levels of the proteins were measured by densitometric analysis of immunoblot, and the phosphorylated amounts and relative intensities calculated with respect to PDK1 and PDK2 were converted with respect to α-tubulin signals and then quantitated. As a result of three independent experiments showing similar results, a representative blot picture was illustrated. […]

Assay [1] deals with genotype 1b HCV subgenomic replicon (R-1 cell line). The experiment in a line: HCV replication (HCV RNA by real-time RT-PCR, NS5B protein by Western blot) in R-1 subgenomic replicon cells. The class given is cell-based, hepatitis C virus genotype 1b. Conditions: R-1 cell. The text has this: In order to check a PRK2 phosphorylation inhibition effect of the novel inhibitors obtained in Example 1, R-1 cell line harboring HCV subgenomic replicons was used.
The R-1 cell line was comprised of cis-acting RNA elements of 5′ and 3′-end untranslated regions (UTR) essential for replication of HCV RNA, a selection marker inserted to select a replicated RNA into a portion from which a structural protein coding site was removed, and a non-structural protein (NS3-NS5B)-coding gene required for replication. In the replicon, the selection marker was expressed by the HCV 5′-UTR and internal ribosome entry site (IRES) as a part of a coding gene of a core protein as a structural protein and capsid protein, and HCV non-structural proteins were expressed by IRES of EMCV. In order to obtain replicon cells, a HCV subgenomic replicon RNA was obtained by means of in vitro transcription by using a T7 RNA polymerase, free ribonucleotide was removed by using a spin column, and introduced into a hepatocellular carcinoma cell line by electroporation. In the presence of G418, a stable cell line, i.e. a cell line showing a resistance to G418 through replication of HCV subgenome, was obtained. Expression of the HCV non-structural proteins in this cell line was analyzed by Western blot to confirm that replication was being carried out, and the R-1 cell line was constructed. It was observed that an HCV RNA copy number was about 10^7 copies/mL by a quantitative real-time PCR analysis using a TaqMan probe. The R-1 cell line was a cell line in which HCV RNA replication was being carried out, and thus it could be used to evaluate an HCV replication inhibition effect of a PRK2 activity inhibitor.
Then, after the R-1 cell line was treated with each of 5 screened PRK2 inhibitors, HA1077 currently and clinically used as a PRK2 activity inhibitor, and Y27632 having a PRK2 activity inhibition effect at a final concentration of 20 μM for 48 hours, levels of HCV NS5B protein and HCV RNA in cell lysates (50 μg) were analyzed by Western blot and real-time RT-PCR.
To do so, after the two cell lines were treated with the compound #17 at higher concentrations (60 and 100 μM) than 20 μM for 48 hours, an HCV RNA genome level was checked by a real-time RT-PCR analysis. A value was a mean±standard deviation (SD) of three independent measurements. HCV RNA titer was quantified by real-time PCR analysis. Three independent experiments were performed in triplicate.
5 derivatives (#18 to #22: refer to FIG. 2) were produced based on the inhibitor #17 showing the best effect. After the R-1 cell line was treated with each of these inhibitors or HA1077 and Y27632 at a final concentration of 20 μM for 48 hours, an HCV RNA genome level was checked by a real-time RT-PCR analysis and expressed in % with respect to a control treated with DSMO. Three independent experiments were conducted repeatedly three times. Data were expressed by mean±SD of the three experiments.
Total RNA was extracted from R-1 or HCV (JFH1)-infected cells using TRIzol LS reagent (Invitrogen, Carlsbad, Calif., USA) and purified according to the manufacturer's instructions. HCV RNA levels were quantified by RT-PCR using a primer pair and TaqMan probe targeting a region within the HCV 5′-UTR as described previously. Cellular glyceraldehyde-3-phosphate dehydrogenase was used as an internal control. Assays were performed using the DyNAmo Probe 2-step qRT-PCR Kit (Finnzymes, Espoo, Finland) and a CHROMO4 continuous fluorescence detector (Bio-Rad, Hercules, Calif., USA), according to the manufacturer's instructions.
Therefore, anti-HCV activity of 17-DMAG in the R-1 cell was tested at a level lower than 50 nM. To do so, the R-1 cell was treated with a vehicle (0.25% DMSO) or 17-DMAG for 72 hours and the cell lysates (50 μg) and antibodies specific to the proteins were immunoblotted to measure levels of the proteins. An anti-α-tubulin antibody (lower end panel) was used as an internal loading control. […]

Take `CO[C@H]1/C=C\C=C(/C)C(=O)NC2=CC(=O)C(NCCN(C)C)=C(C[C@@H](C)C[C@H](OC)[C@H](O)[C@@H](C)/C=C(\C)[C@@H]1OC(N)=O)C2=O` [17-DMAG, 17-(dimethylaminoethylamino)-17-demethoxygeldanamycin]: the “level of PDK1” value in the assay on PDK1 was “decreased”. Also, the “decrease in viral RNA” value in assay [1] (50 nM 17-DMAG combined with 100 IU/mL IFN-α, 72 hours) was “hundredfold”. Moreover, the “inhibition of HCV RNA replication” value in assay [1] (50 nM, 72 hours) was “about 50%”. Moreover, the “inhibition of virus replication” value in assay [1] (17-DMAG 50 nM combined with HA1077 20 μM) was “approximately 80%”.
